Patent US20040043959A1, “Combination therapies for treating methylthioadenosine phosphorylase deficient cells” (priority 2002, published 2004)

Molecular target: T1, Human MTAP (Homo sapiens, UniProt Q13126)
T1 construct: six-histidine tag (His6) (N); made in house; host or cells: E. coli BL21 DE3
T1 sequence (Q13126 1-283): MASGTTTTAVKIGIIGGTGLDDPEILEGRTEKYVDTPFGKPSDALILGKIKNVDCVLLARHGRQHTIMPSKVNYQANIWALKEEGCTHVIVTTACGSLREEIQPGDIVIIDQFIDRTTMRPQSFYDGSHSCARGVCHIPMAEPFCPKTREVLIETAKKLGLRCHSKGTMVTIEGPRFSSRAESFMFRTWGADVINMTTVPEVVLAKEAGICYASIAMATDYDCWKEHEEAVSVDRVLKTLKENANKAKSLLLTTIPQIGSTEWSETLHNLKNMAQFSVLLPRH
Experiment: MTAP substrate assay, coupled spectrophotometric (adenine, xanthine oxidase)
Format: biochemical
Conditions: 2 nM MTAP; for activity at 50 µM: 10 min, read-out: MT-A—50: initial velocity as a percentage of the initial velocity with MTA as substrate; for activity at 50 µM / MT-A—50: initial velocity as a percentage of the initial velocity with MTA as substrate: compound 50 uM, relative to MTA at 50 uM; for MT-A—10: initial velocity as a percentage of the initial velocity with MTA as substrate: compound 10 uM, relative to MTA at 10 uM
Experimental: An enzymatic assay to determine the activity of MTAP against a given substrate was performed. Human MTAP containing an N-terminal six-histidine tag was expressed in E. coli BL21 DE3 cells. The protein was purified to homogeneity by Ni2+ affinity chromatography. Enzymatic activity was measured using a coupled spectrophotometric assay designed to monitor the reaction product adenine (Savarese, T. M., Crabtree, G. W., and Parks, R. E. Jr., (1980) Biochem. Pharmacol. 30, 189-199). Various concentrations of the indicated 5′-deoxymethylthio adenosine (MTA) or substrate were incubated in assay buffer (40 mM potassium phosphate buffer, 1 mM, and DTT 0.8 units/ml xanthine oxidase coupling enzyme) for 5 minutes at 37° C. The reaction was initiated by the addition of MTAP. The exact concentration of enzyme used varied for each substrate tested and ranged from 2 nM to 500 nM. Activity as a function of enzyme concentration was determined for each substrate tested to ensure that the appropriate enzyme concentration was used. Activity was detected by continuous monitoring of absorbance at 305 nm for 10 minutes (ΔE=15,500 M^−1).
Library compounds (10 and 50 uM) were tested using the assay described above with 2 nM MTAP enzyme. The resultant initial velocities are reported as a percentage of the initial velocity observed when MTA is the substrate. MTA controls, 10 and 50 uM concentrations, were run on each plate alongside the library compounds.

| SMILES | activity at 50 µM | MT-A—10: initial velocity as a percentage of the initial velocity with MTA as substrate | MT-A—50: initial velocity as a percentage of the initial velocity with MTA as substrate |
| --- | --- | --- | --- |
| Nc1ncnc2c1ncn2[C@@H]1O[C@H](CSc2ccccc2C2=NCCCN2)[C@@H](O)[C@H]1O [2(G)(1), (2R, 3R, 4S, 5S)-2-(6-amino-9H-purin-9-yl)-5-({[2-(1,4,5,6-tetrahydropyrimidin-2-yl)phenyl]thio}methyl)-tetrahydrofuran-3,4-diol] | 23% | 8% |  |
| Nc1ccccc1SC[C@H]1O[C@@H](n2cnc3c(N)ncnc32)[C@H](O)[C@@H]1O [2(G)(2), (2R, 3R, 4S, 5S)-2-(6-amino-9H-purin-9-yl)-5-{[(2-amino-phenyl)thio]methyl}tetrahydrofuran-3,4-diol] | 5% | 3% |  |
| Nc1nc(SC[C@H]2O[C@@H](n3cnc4c(N)ncnc43)[C@H](O)[C@@H]2O)c2[nH]cnc2n1 [2(G)(3), (2R, 3R, 4S, 5S)-2-(6-amino-9H-purin-9-yl)-5-{[(2-amino-7H-purin-6-yl)thio]methyl}tetrahydro-furan-3,4-diol] | 45% | 46% |  |
| CCc1cnc(SC[C@H]2O[C@@H](n3cnc4c(N)ncnc43)[C@H](O)[C@@H]2O)[nH]c1=O [2(G)(4), 2-({[(2S, 3S, 4R, 5R)-5-(6-amino-9H-purin-9-yl)-dihydroxytetrahydrofuran-2-yl]methyl}thio)-5-ethylpyrimidin-4(3H)-one] | 49% | 38% |  |
| Cn1nnnc1SC[C@H]1O[C@@H](n2cnc3c(N)ncnc32)[C@H](O)[C@@H]1O [2(G)(6), (2R, 3R, 4S, 5S)-2-(6-amino-9H-purin-9-yl)-5-{[(1-methyl-1H-tetrazol-5-yl)thio]methyl}tetra-hydrofuran-3,4-diol] | 47% | 46% |  |
| CCCSc1ccc2[nH]c(SC[C@H]3O[C@@H](n4cnc5c(N)ncnc54)[C@H](O)[C@@H]3O)nc2c1 [2(G)(7), (2R, 3R, 4S, 5S)-2-(6-amino-9H-purin-9-yl)-5-({[5-(propylthio)-1H-benzimidazol-2-yl]thio}methyl)tetrahydro-furan-3,4-diol] | 0% | 3% |  |
| Nc1ncnc2c1ncn2[C@@H]1O[C@H](CSc2ncccn2)[C@@H](O)[C@H]1O [2(G)(8), (2R, 3R, 4S, 5S)-2-(6-amino-9H-purin-9-yl)-5-[(pyrimidin-2-ylthio)methyl]tetrahydro-furan-3,4-diol] | 59% | 54% |  |
| Nc1nnc(SC[C@H]2O[C@@H](n3cnc4c(N)ncnc43)[C@H](O)[C@@H]2O)s1 [2(G)(9), (2R, 3R, 4S, 5S)-2-(6-amino-9H-purin-9-yl)-5-{[(5-amino-1,3,4-thiadiazol-2-yl)thio]methyl}tetrahydro-furan-3,4-diol] | 47% | 34% |  |
| Nc1ccc(SC[C@H]2O[C@@H](n3cnc4c(N)ncnc43)[C@H](O)[C@@H]2O)cc1 [2(G)(10), (2R, 3R, 4S, 5S)-2-(6-amino-9H-purin-9-yl)-5-{[(4-aminophenyl)thio]methyl]-tetrahydrofuran-3,4-diol] | 19% | 20% |  |
| Nc1ncnc2c1ncn2[C@@H]1O[C@H](CSc2nc3cc(Cl)ccc3s2)[C@@H](O)[C@H]1O [2(G)(11), (2R, 3R, 4S, 5S)-2-(6-amino-9H-purin-9-yl)-5-{[(5-chloro-1,3-benzothiazol-2-yl)thio]methyl}tetrahydro-furan-3,4-diol] | 25% | 22% |  |
| Nc1ncnc2c1ncn2[C@@H]1O[C@H](CSc2nc3ccccc3s2)[C@@H](O)[C@H]1O [2(G)(12), (2R, 3R, 4S, 5S)-2-(6-amino-9H-purin-9-yl)-5-[(1,3-benzothiazol-2-ylthio)methyl]tetrahydro-furan-3,4-diol] | 25% | 24% |  |
| CC(=O)Nc1ccc(SC[C@H]2O[C@@H](n3cnc4c(N)ncnc43)[C@H](O)[C@@H]2O)cc1 [2(G)(13), N-[4-({[(2S, 3S, 4R, 5R)-5-(6-amino-9H-purin-9-yl)-dihydroxytetrahydro-furan-2-yl]methyl}thio)phenyl]acetamide] |  | 19% | 17% |
| Nc1ncnc2c1ncn2[C@@H]1O[C@H](CSc2ccc(O)cc2)[C@@H](O)[C@H]1O [2(G)(14), (2R, 3R, 4S, 5S)-2-(6-amino-9H-purin-9-yl)-5-{[(4-hydroxyphenyl)-thio]-methyl}tetrahydrofuran-3,4-diol] | 51% | 16% |  |
| Nc1ncnc2c1ncn2[C@@H]1O[C@H](CSc2ccc3ccccc3c2)[C@@H](O)[C@H]1O [2(G)(15)] |  | 29% | 25% |
| COc1ccc(CSC[C@H]2O[C@@H](n3cnc4c(N)ncnc43)[C@H](O)[C@@H]2O)cc1 [2(G)(16), (2R, 3R, 4S, 5S)-2-(6-amino-9H-purin-9-yl)-5-{[(4-methoxybenzyl)-thio]methyl}tetrahydro-furan-3,4-diol] | 60% | 59% |  |
| Nc1ncnc2c1ncn2[C@@H]1O[C@H](CSc2ccc(Br)cc2)[C@@H](O)[C@H]1O [2(G)(17), (2R, 3R, 4S, 5S)-2-(6-amino-9H-purin-9-yl)-5-{[(4-bromophenyl)-thio]methyl}tetrahydro-furan-3,4-diol] | 17% | 21% |  |
| Nc1ncnc2c1ncn2[C@@H]1O[C@H](CSc2cccc3ccccc23)[C@@H](O)[C@H]1O [2(G)(18), (2R, 3R, 4S, 5S)-2-(6-amino-9H-purin-9-yl)-5-[(1-naphthylthio)methyl]tetrahydrofuran-3,4-diol] | 4% | 5% |  |
| Nc1ncnc2c1ncn2[C@@H]1O[C@H](CSc2ccc(Cl)cc2)[C@@H](O)[C@H]1O [2(G)(19), (2R, 3R, 4S, 5S)-2-(6-amino-9H-purin-9-yl)-5-{[(4-chlorophenyl)thio]-methyl}tetrahydro-furan-3,4-diol] | 17% | 19% |  |
| COC(=O)c1ccc(SC[C@H]2O[C@@H](n3cnc4c(N)ncnc43)[C@H](O)[C@@H]2O)cc1 [2(G)(20), methyl 4-({[(2S, 3S, 4R, 5R)-5-(6-amino-9H-purin-9-yl)-5-3,4-dihydroxytetrahydro-furan-2-yl]methyl}thio)benzoate] | 5% | 7% |  |
| CC(C)(C)c1ccc(SC[C@H]2O[C@@H](n3cnc4c(N)ncnc43)[C@H](O)[C@@H]2O)cc1 [2(G)(21), (2R, 3R, 4S, 5S)-2-(6-amino-9H-purin-9-yl)-5-{[(4-tert-butylphenyl)thio]methyl}tetrahydrofuran-3,4-diol] | 9% | 12% |  |
| Cc1cccc(C)c1SC[C@H]1O[C@@H](n2cnc3c(N)ncnc32)[C@H](O)[C@@H]1O [2(G)(22), (2R, 3R, 4S, 5S)-2-(6-amino-9H-purin-9-yl)-5-{[(2,6-dimethylphenyl)-thio]methyl}tetrahydro-furan-3,4-diol] | 15% | 3% |  |
| Nc1ncnc2c1ncn2[C@@H]1O[C@H](CSc2ccc(F)cc2)[C@@H](O)[C@H]1O [2(G)(23), (2R, 3R, 4S, 5S)-2-(6-amino-9H-purin-9-yl)-5-{[(4-fluorophenyl)-thio]methyl}tetra-hydrafuran-3,4-diol] | 31% | 21% |  |
